Assay results as given in patent publication US8642801B2 (BHI Limited Partnership, priority 2003, dated 2014).

What was measured:
[1] = system: Aβ40 and Aβ42 peptides in plasma and brain of TgCRND8 mice; assay: Long term treatment in adult transgenic CRND8 mice overexpressing βAPP: Aβ levels in plasma and brain by ELISA; assay type: in vivo, Mouse
Description: (§1) Transgenic mice, TgCRND8, as those used in the short term treatment, overexpress a human APP gene with the Swedish and Indiana mutations leading to the production of high levels of the amyloid peptides and to the development of an early-onset, aggressive development of brain amyloidosis. The high levels of Aβ peptides and the relative overabundance of Aβ42 compared to Aβ40 are believed to be associated with the severe and early degenerative pathology observed. The pattern of amyloid deposition, presence of dystrophic neuritis, and cognitive deficit has been well documented in this transgenic mouse line. The levels of Aβ peptides in the brain of these mice increase dramatically as the animals age. While the total amyloid peptide levels increase from ˜1.6×10^5 pg/g of brain to ˜3.8×10^6 between 9 and 17 weeks of age.
(§2) The long-term therapeutic effects of compounds of the present invention on cerebral amyloid deposition and β-amyloid (Aβ) levels in the plasma and in the brains of transgenic mice, TgCRND8, expressing the human amyloid precursor protein (hAPP) was studied. These compounds were administered over an 8 or 16 week period at the end of which the levels of Aβ peptides in the plasma and brain of TgCRND8 animals were determined. The goal of this study was to evaluate the efficacy of the compounds at modulating the progression of the amyloidogenic process in the brain and in the plasma of a transgenic mouse model of Alzheimer's disease (AD)
(§3) The mice used in the study consisted of animals bearing one copy of the hAPP gene (+/−) from the 2nd and 3rd generation progenies (N2 and N3) derived from backcrosses from TgCRND8.FVB(N2)AJ(N3) with B6AF1/J hybrid animals. N1=TgCRND8.FVB(N2)AJ(N3)×B6AF1/J N2=TgCRND8.FVB(N2)AJ(N3).B6AF1/J(N1)×B6AF1/J N3=TgCRND8.FVB(N2)AJ(N3).B6AF1/J(N2)×B6AF1/a
(§4) The following abbreviations are used to designate these animals in the present study: TgCRND8.B6AF1/J(N2); TgCRND8.B6AF1/J(N3). Male and female transgenic mice were given daily subcutaneous (compound BX) or oral (compounds BW and BZ) administrations of the appropriate compounds for 8 or 16 weeks.
(§5) Baseline animals consisted of 9±1 week old naive TgCRND8.B6AF1/J animals from the 2nd and 3rd generations. These mice were used to determine the extent of cerebral amyloid deposits and Aβ levels in the plasma and brain of naive transgenic animals at the initiation of treatment.
(§6) Starting at 9 weeks of age (±1 week) animals received daily administration of their respective treatment for a period of 8 or 16 weeks, at a dose of 30 or 100 mg/kg at 10 ml/kg. The route of administration was subcutaneous for water-soluble compounds (Compound BX) and oral for compounds solubilized in methylcellulose 1% (MC 1%) (Compounds BW and BZ). At the end of the treatment periods, plasma and perfused brains were collected for quantification of Aβ levels.
(§7) Animal health was monitored, samples were collected and Aβ levels were measured as described above in the short term treatment study. Compounds were scored based on their ability to modulate levels of Aβ peptides in the plasma and the cerebral soluble/insoluble levels in the brain. Levels of Aβ observed in the plasma and brain of treated animals were compared to that of vehicle-treated (water) or methylcellulose-treated control groups and ranked according to the strength of the pharmacological effect. Increases in the levels of Aβ peptides are indicated using “+” symbols, while decreases in the levels of Aβ peptides are indicated using “−” symbols. The strongest effects are recorded as “+++” or “−−−” while the weakest are shown as “+” or “−”.
(§8) Specifically, increases in the levels of Aβ (relative to vehicle treated control) of 5 to 14% are scored as “+”; increases of 15 to 29% are scored as “++”; and increases of 30% or higher are scored as “+++”. Decreases in the levels of Aβ of 5 to 14% are scored as “−”; decreases of 15 to 29% are scored as “−−”; and decreases of 30% or more are scored as “−−−”. […]

[2] = molecular target: T1, Aβ40 and Aβ42 peptides in plasma and brain of TgCRND8 mice (Homo sapiens, UniProt P05067); assay: as above; assay type: in vivo, Mouse; settings: BX subcutaneous, BW and BZ oral, vs vehicle or methylcellulose control
T1 construct: ELISA using Human Aβ40 and Aβ42 Fluorometric ELISA kits from Biosource; from tissue; host or cells: plasma and brain homogenate of TgCRND8 transgenic mice (hAPP transgene)
Description: as §1, §2, §3, §4, §5, §6, §7, §8

Compound	Brain Abeta40 insoluble ([2]; 30 mg/kg daily, 8 wks)	Brain Abeta40 soluble ([2]; 30 mg/kg daily, 8 wks)	Brain Abeta42 insoluble ([2]; 30 mg/kg daily, 8 wks)	Brain Abeta42 soluble ([2]; 30 mg/kg daily, 8 wks)	Plasma Abeta40 ([2]; 30 mg/kg daily, 8 wks)	Plasma Abeta42 ([2]; 30 mg/kg daily, 8 wks)	Brain Abeta40 insoluble ([2]; 30 mg/kg daily, 16 wks)	Brain Abeta40 soluble ([2]; 30 mg/kg daily, 16 wks)	Brain Abeta42 insoluble ([2]; 30 mg/kg daily, 16 wks)	Brain Abeta42 soluble ([2]; 30 mg/kg daily, 16 wks)	Plasma Abeta40 ([2]; 30 mg/kg daily, 16 wks)	Plasma Abeta42 ([2]; 30 mg/kg daily, 16 wks)	Brain Abeta40 insoluble ([2]; 100 mg/kg daily, 8 wks)	Brain Abeta40 soluble ([2]; 100 mg/kg daily, 8 wks)	Brain Abeta42 insoluble ([2]; 100 mg/kg daily, 8 wks)	Brain Abeta42 soluble ([2]; 100 mg/kg daily, 8 wks)	Plasma Abeta40 ([2]; 100 mg/kg daily, 8 wks)	Plasma Abeta42 ([2]; 100 mg/kg daily, 8 wks)	Brain Abeta40 insoluble ([2]; 100 mg/kg daily, 16 wks)	Brain Abeta40 soluble ([2]; 100 mg/kg daily, 16 wks)	further results
O=S(=O)(O)CCCNC12CC3CC(CC(C3)C1)C2 [BW, 3-(1-adamantyl)amino-1-propanesulfonic acid]	−− (decreases of 15 to 29% are scored as “−−”)	− (Decreases in the levels of Aβ of 5 to 14% are scored as “−”)	0 (changes of 4% or less in either direction are scored as “0”)	−− (decreases of 15 to 29% are scored as “−−”)	−−− (decreases of 30% or more are scored as “−−−”)	−−− (decreases of 30% or more are scored as “−−−”)	++ (increases of 15 to 29% are scored as “++”)	+ (increases in the levels of Aβ (relative to vehicle treated control) of 5 to 14% are scored as “+”)	+ (increases in the levels of Aβ (relative to vehicle treated control) of 5 to 14% are scored as “+”)	− (Decreases in the levels of Aβ of 5 to 14% are scored as “−”)	−− (decreases of 15 to 29% are scored as “−−”)	−− (decreases of 15 to 29% are scored as “−−”)	−−− (decreases of 30% or more are scored as “−−−”)	−− (decreases of 15 to 29% are scored as “−−”)	−−− (decreases of 30% or more are scored as “−−−”)	−− (decreases of 15 to 29% are scored as “−−”)	− (Decreases in the levels of Aβ of 5 to 14% are scored as “−”)	− (Decreases in the levels of Aβ of 5 to 14% are scored as “−”)	+ (increases in the levels of Aβ (relative to vehicle treated control) of 5 to 14% are scored as “+”)	++ (increases of 15 to 29% are scored as “++”)	brain and plasma levels of Aβ ([1]; at 8 weeks): dramatic decrease; plasma levels of Aβ ([1]; at 16 weeks): dramatic decrease; Brain Abeta42 insoluble ([2]; 100 mg/kg daily, 16 wks): ++ (increases of 15 to 29% are scored as “++”); Brain Abeta42 soluble ([2]; 100 mg/kg daily, 16 wks): + (increases in the levels of Aβ (relative to vehicle treated control) of 5 to 14% are scored as “+”); Plasma Abeta40 ([2]; 100 mg/kg daily, 16 wks): − (Decreases in the levels of Aβ of 5 to 14% are scored as “−”); Plasma Abeta42 ([2]; 100 mg/kg daily, 16 wks): − (Decreases in the levels of Aβ of 5 to 14% are scored as “−”)
O=S(=O)(O)CCCNC1C2CC3CC(C2)CC1C3 (centres unmarked) [BZ, 3-(2-adamantyl)amino-1-propanesulfonic acid]	−− (decreases of 15 to 29% are scored as “−−”)	0 (changes of 4% or less in either direction are scored as “0”)	−−− (decreases of 30% or more are scored as “−−−”)	0 (changes of 4% or less in either direction are scored as “0”)	0 (changes of 4% or less in either direction are scored as “0”)	0 (changes of 4% or less in either direction are scored as “0”)	+ (increases in the levels of Aβ (relative to vehicle treated control) of 5 to 14% are scored as “+”)	0 (changes of 4% or less in either direction are scored as “0”)	0 (changes of 4% or less in either direction are scored as “0”)	+ (increases in the levels of Aβ (relative to vehicle treated control) of 5 to 14% are scored as “+”)	0 (changes of 4% or less in either direction are scored as “0”)	+ (increases in the levels of Aβ (relative to vehicle treated control) of 5 to 14% are scored as “+”)	0 (changes of 4% or less in either direction are scored as “0”)	++ (increases of 15 to 29% are scored as “++”)	− (Decreases in the levels of Aβ of 5 to 14% are scored as “−”)	0 (changes of 4% or less in either direction are scored as “0”)	++ (increases of 15 to 29% are scored as “++”)	+++ (increases of 30% or higher are scored as “+++”)	0 (changes of 4% or less in either direction are scored as “0”)	−− (decreases of 15 to 29% are scored as “−−”)	Brain Abeta42 insoluble ([2]; 100 mg/kg daily, 16 wks): + (increases in the levels of Aβ (relative to vehicle treated control) of 5 to 14% are scored as “+”); Brain Abeta42 soluble ([2]; 100 mg/kg daily, 16 wks): − (Decreases in the levels of Aβ of 5 to 14% are scored as “−”); Plasma Abeta40 ([2]; 100 mg/kg daily, 16 wks): ++ (increases of 15 to 29% are scored as “++”); Plasma Abeta42 ([2]; 100 mg/kg daily, 16 wks): ++ (increases of 15 to 29% are scored as “++”)
